# The supplement of paper PMC10307832
# What was measured:
# Assay in all cases: relative viability (nuclei count vs DMSO), 5 days (fraction); higher = more cells survive
# [1] = compound: C1=CC2=C(C=CC(=C2)C=C3C(=O)NC(=NCC4=CC=CS4)S3)N=C1 [RO-3306] + CCNC(=O)c1noc(-c2cc(C(C)C)c(O)cc2O)c1-c1ccc(CN2CCOCC2)cc1 [Luminespib] (partner 0.01 µM)
# In short: (§1)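 Values are medians from duplicate plates. Each reflects relative viability, defined as the nuclei count of treated wells over that of vehicle wells. Lung cancer cell lines in 1536-well plates were pin-tool dosed one day after seeding with one drug alone or with a fixed anchor-drug dose plus five library-drug doses (not always all listed) in √10 steps, then fixed, stained and imaged at 4× after 5 days.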
# [2] = compound: C1=CC2=C(C=CC(=C2)C=C3C(=O)NC(=NCC4=CC=CS4)S3)N=C1 [RO-3306] + CS(=O)(=O)N1CCN(Cc2cc3nc(-c4cccc5[nH]ncc45)nc(N4CCOCC4)c3s2)CC1 [Pictilisib] (partner 1 µM)
# In short: as §1
# [3] = compound: C1=CC2=C(C=CC(=C2)C=C3C(=O)NC(=NCC4=CC=CS4)S3)N=C1 [RO-3306] + Cc1nc(NC(=O)N2CCC[C@H]2C(N)=O)sc1-c1ccnc(C(C)(C)C(F)(F)F)c1 [Alpelisib] (partner 2 µM)
# In short: as §1
# [4] = compound: O=S(=O)(c1ccccc1)N(CC(F)(F)F)c1ccc(C(O)(C(F)(F)F)C(F)(F)F)cc1 + CC(C)C[C@H](NC(=O)[C@H](Cc1ccccc1)NC(=O)c1cnccn1)B(O)O [Bortezomib] (partner 0.002 µM)
# In short: as §1
Cell Line,relative viability ([1]; first compound 0.01 µM),relative viability ([1]; first compound 0.03162 µM),relative viability ([1]; first compound 0.1 µM),relative viability ([1]; first compound 0.3162 µM),relative viability ([1]; first compound 1 µM),relative viability ([2]; first compound 0.01 µM),relative viability ([2]; first compound 0.03162 µM),relative viability ([2]; first compound 0.1 µM),relative viability ([2]; first compound 0.3162 µM),relative viability ([2]; first compound 1 µM),relative viability ([3]; first compound 0.01 µM),relative viability ([3]; first compound 0.03162 µM),relative viability ([3]; first compound 0.1 µM),relative viability ([3]; first compound 0.3162 µM),relative viability ([3]; first compound 1 µM),relative viability ([4]; first compound 0.8 µM),relative viability ([4]; first compound 2.53 µM),relative viability ([4]; first compound 8 µM)
NCI-H2087,0.196,0.175,0.149,0.23,0.17,0.988,0.698,1.01,0.974,0.836,1.12,1.2,1.08,0.91,1.08,0.915,0.82,0.793
HCC-827,0.502,0.433,0.588,0.586,0.786,0.913,0.983,0.878,1.07,1.05,1.04,1.05,0.921,0.946,1.06,1.08,0.979,1.04
NCI-H520,0.252,0.212,0.249,0.218,0.23,0.307,0.266,0.283,0.312,0.314,0.992,0.811,0.838,0.854,0.836,0.962,0.785,0.626
NCI-H2009,1.1,0.979,1.07,0.992,0.976,0.96,0.712,0.806,0.753,0.636,1.18,1.18,1.21,1.12,1.27,0.91,0.891,0.929
RERF-LC-KJ,1.15,1.41,1.17,1.45,0.99,0.563,0.487,0.591,0.552,0.435,1.01,0.708,0.706,0.836,0.768,1.12,0.95,1.02
NCI-H650,0.716,0.755,0.813,0.798,0.789,0.983,0.928,0.792,0.777,0.916,0.872,0.981,1.03,1.1,1.05,0.832,0.776,0.823
NCI-H3122,0.113,0.108,0.0505,0.101,0.122,0.602,0.56,0.624,0.611,0.525,0.635,0.738,0.832,0.762,0.788,0.989,0.963,0.907
LCLC-103H,0.872,0.882,0.955,0.93,1.03,0.461,0.556,0.561,0.655,0.608,0.919,0.976,1.03,0.962,0.948,1.18,1.04,1.12
NCI-H2347,1.03,0.43,0.825,0.253,0.575,0.715,0.477,0.642,0.881,0.668,1.13,0.759,1.01,1.05,0.951,1.32,0.819,0.92
NCI-H322M,0.801,0.708,0.907,0.943,0.835,0.493,0.486,0.485,0.556,0.585,0.8,0.7,0.707,0.888,0.827,1.48,1.02,1.23
NCI-H596,1.06,0.853,1.13,0.84,0.974,0.345,0.394,0.375,0.372,0.287,0.443,0.48,0.49,0.511,0.432,0.997,0.791,0.843
NCI-H647,0.234,0.121,0.122,0.174,0.322,0.326,0.464,0.401,0.454,0.299,1.76,0.954,1.09,1.16,1.28,1.27,1.03,0.967
NCI-H1666,0.929,0.883,1.05,1.05,0.891,0.451,0.407,0.389,0.35,0.406,1.02,0.743,0.891,0.973,0.802,0.948,0.696,0.685
LOU-NH91,0.348,0.298,0.312,0.28,0.291,0.512,0.528,0.522,0.533,0.406,0.7,0.705,0.764,0.708,0.671,0.536,0.51,0.484
EMC-BAC-2,1.25,0.983,1.23,1.16,1.15,0.503,0.511,0.54,0.531,0.483,0.763,0.63,0.717,0.774,0.726,1.07,1.1,1.02
NCI-H2085,0.377,0.499,0.517,0.437,0.46,0.388,0.467,0.467,0.492,0.479,1.07,0.926,0.922,0.968,0.952,1.12,0.943,1.02
